From PMC1847840, “Structural and Chemical Profiling of the Human Cytosolic Sulfotransferases” (PLoS Biology, 2007)

Assays:
[1] = molecular target: T1, SULT1A1 (Homo sapiens, UniProt P50225); test: thermal aggregation shift (StarGazer static light scattering); format: binding; settings: 1 mM compound, pH 7.5, with saturating PAP
T1 construct: purified recombinant; clone and tag not described
Description: thermal aggregation shift (StarGazer static light scattering) on SULT1A1

[2] = molecular target: T2, SULT1C3 (Homo sapiens, UniProt Q6IMI6); test: as above; format: binding; settings: 1 mM compound
T2 construct: recombinant, modified pET28a-LIC, bacterial expression; extra Gly-Ser at N-terminus

[3] = molecular target: T3, SULT1B1 (Homo sapiens, UniProt O43704); test: as above; format: binding; settings: 1 mM compound
T3 construct: recombinant, modified pET28a-LIC, bacterial expression; extra Gly-Ser at N-terminus
Description: thermal aggregation shift (StarGazer static light scattering) on SULT1B1

[4] = molecular target: T4, SULT1C2 (Homo sapiens, UniProt O75897); test: as above; format: binding; settings: 1 mM compound, pH 7.5, no other ligand
T4 construct: gene SULT1C4; recombinant, modified pET28a-LIC, bacterial expression; extra Gly-Ser at N-terminus
Description: thermal aggregation shift (StarGazer static light scattering) on SULT1C2

[5] = molecular target: T5, SULT1C1 (Homo sapiens, UniProt O00338); test: as above; format: binding; settings: 1 mM compound
T5 construct: gene SULT1C2; recombinant, modified pET28a-LIC; extra Gly-Ser at N-terminus
Description: thermal aggregation shift (StarGazer static light scattering) on SULT1C1

[6] = molecular target: T6, SULT1E1 (Homo sapiens, UniProt P49888); test: as above; format: binding; settings: 1 mM compound, pH 7.5, with saturating PAP
T6 construct: purified recombinant; clone and tag not described
T6 sequence (P49888 1-294): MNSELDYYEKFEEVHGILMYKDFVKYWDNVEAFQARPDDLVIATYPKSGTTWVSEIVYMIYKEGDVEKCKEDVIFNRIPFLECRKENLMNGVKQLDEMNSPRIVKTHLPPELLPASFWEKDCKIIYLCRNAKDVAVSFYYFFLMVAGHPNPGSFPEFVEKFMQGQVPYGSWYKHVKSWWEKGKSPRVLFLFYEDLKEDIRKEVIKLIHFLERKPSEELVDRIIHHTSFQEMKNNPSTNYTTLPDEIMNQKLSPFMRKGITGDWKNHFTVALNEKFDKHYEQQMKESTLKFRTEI
Description: thermal aggregation shift (StarGazer static light scattering) on SULT1E1

[7] = molecular target: T7, SULT1A3 (Homo sapiens, UniProt P0DMM9); test: as above; format: binding; settings: 1 mM compound, pH 7.5, with saturating PAP
T7 construct: purified recombinant; clone and tag not described; SULT1A4 encodes the same protein
Description: thermal aggregation shift (StarGazer static light scattering) on SULT1A3

[8] = molecular target: T8, SULT4A1 (Homo sapiens, UniProt Q9BR01); test: as above; format: binding; settings: 1 mM compound, pH 7.5, without PAP
T8 construct: recombinant, modified pET28a-LIC, bacterial expression; extra Gly-Ser at N-terminus
T8 sequence (Q9BR01 1-284): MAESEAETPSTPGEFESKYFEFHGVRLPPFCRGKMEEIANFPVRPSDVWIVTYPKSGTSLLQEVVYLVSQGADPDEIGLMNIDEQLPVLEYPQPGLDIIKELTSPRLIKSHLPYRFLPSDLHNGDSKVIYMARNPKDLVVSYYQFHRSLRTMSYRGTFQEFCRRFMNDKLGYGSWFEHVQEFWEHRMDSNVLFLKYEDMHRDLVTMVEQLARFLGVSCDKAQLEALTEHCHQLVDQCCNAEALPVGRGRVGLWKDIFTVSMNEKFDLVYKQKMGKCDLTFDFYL
Description: thermal aggregation shift (StarGazer static light scattering) on SULT4A1

[9] = molecular target: T9, SULT2A1 (Homo sapiens, UniProt Q06520); test: as above; format: binding; settings: 1 mM compound, pH 7.5, without PAP
T9 construct: purified recombinant; clone and tag not described
T9 sequence (Q06520 1-285): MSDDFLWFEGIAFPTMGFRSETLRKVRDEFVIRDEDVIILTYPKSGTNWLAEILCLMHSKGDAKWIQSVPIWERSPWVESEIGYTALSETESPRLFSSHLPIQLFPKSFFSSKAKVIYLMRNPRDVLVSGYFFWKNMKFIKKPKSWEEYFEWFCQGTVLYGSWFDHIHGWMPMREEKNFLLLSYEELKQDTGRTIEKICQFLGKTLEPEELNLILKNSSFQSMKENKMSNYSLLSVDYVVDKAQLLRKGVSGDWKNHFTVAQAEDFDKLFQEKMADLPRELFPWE
Description: thermal aggregation shift (StarGazer static light scattering) on SULT2A1

[10] = molecular target: T4, SULT1C2; test: X-ray crystal structure, […] Å; format: binding; settings: ternary complex with PAP; substrate pocket
[11] = molecular target: T3, SULT1B1; test: HPLC PAPS to PAP conversion, inhibition of sulfotransferase activity; format: biochemical; settings: 1-naphthol as substrate; PCP 5 to 312 μM; pH 7.5, 37 °C

T2 sequence (Q6IMI6 whole entry): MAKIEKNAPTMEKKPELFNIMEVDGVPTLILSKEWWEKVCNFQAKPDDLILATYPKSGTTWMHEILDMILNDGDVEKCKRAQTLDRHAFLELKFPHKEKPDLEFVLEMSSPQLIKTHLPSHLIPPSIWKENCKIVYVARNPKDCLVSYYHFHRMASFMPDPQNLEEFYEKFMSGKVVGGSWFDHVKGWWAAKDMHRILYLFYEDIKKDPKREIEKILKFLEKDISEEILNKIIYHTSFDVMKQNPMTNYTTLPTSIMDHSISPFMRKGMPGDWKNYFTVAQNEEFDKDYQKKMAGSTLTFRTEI
T5 sequence (O00338 whole entry): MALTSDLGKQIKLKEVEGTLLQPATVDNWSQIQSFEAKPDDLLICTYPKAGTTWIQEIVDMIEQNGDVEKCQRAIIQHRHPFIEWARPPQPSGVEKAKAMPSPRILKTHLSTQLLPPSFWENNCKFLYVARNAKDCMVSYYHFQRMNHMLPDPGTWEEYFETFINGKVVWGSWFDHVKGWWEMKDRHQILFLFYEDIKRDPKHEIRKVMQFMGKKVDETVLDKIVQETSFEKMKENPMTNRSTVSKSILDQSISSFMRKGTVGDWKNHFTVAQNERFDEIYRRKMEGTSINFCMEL
T3 sequence (O43704 whole entry): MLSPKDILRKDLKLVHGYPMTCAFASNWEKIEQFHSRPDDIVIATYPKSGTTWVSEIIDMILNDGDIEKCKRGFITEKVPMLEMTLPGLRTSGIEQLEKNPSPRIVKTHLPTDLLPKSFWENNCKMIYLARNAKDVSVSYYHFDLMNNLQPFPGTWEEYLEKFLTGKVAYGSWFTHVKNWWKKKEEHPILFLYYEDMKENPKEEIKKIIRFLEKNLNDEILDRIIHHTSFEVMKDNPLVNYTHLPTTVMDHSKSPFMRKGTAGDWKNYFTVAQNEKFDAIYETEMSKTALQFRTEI
T1 sequence (P50225 whole entry): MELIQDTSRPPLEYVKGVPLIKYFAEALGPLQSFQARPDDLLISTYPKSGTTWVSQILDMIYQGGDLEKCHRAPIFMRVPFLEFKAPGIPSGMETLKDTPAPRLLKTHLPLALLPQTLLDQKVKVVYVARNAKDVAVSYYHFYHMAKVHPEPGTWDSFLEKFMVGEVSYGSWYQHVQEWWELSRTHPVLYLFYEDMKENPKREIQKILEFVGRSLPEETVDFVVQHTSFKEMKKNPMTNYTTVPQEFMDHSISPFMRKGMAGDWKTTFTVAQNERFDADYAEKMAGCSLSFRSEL
T4 sequence (O75897 whole entry): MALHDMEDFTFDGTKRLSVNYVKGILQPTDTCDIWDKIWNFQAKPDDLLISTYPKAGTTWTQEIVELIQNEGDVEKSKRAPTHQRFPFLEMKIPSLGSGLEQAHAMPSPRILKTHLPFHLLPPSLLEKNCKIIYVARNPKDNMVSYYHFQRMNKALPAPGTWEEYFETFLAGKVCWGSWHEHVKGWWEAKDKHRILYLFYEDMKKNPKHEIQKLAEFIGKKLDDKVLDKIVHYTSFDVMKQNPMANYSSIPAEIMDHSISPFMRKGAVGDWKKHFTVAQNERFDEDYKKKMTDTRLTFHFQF
T7 sequence (P0DMM9 whole entry): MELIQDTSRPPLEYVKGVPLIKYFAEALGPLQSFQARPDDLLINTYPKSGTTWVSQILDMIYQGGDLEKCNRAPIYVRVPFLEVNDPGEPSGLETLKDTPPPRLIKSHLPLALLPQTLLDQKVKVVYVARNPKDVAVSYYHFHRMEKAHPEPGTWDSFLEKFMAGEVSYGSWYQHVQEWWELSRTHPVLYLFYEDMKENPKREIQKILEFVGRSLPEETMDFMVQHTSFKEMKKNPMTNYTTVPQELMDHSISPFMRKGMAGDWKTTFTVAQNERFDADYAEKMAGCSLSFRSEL

Structure (SMILES): O=[N+]([O-])c1cc(Cl)c(O)c(Cl)c1 [2,6-dichloro-4-nitrophenol]
- dTagg [1]: 8.7 °C

Structure (SMILES): CCc1ccccc1O [2-ethylphenol]
- dTagg ([2]; pH 7.5, with saturating PAP): 2.1 °C

Structure (SMILES): Nc1ncnc2c1ncn2[C@@H]1O[C@H](COP(=O)(O)O)[C@@H](OP(=O)(O)O)[C@H]1O [3′-phosphoadenosine 5′-phosphate]
- dTagg ([3]; pH 7.5, no other ligand): 7.8 °C
- dTagg [4]: 6.4 °C
- dTagg ([2]; pH 7.5, no other ligand): 6.5 °C
- dTagg ([5]; pH 7.5, no other ligand): 4.5 °C

Structure (SMILES): C#C[C@]1(O)CC[C@H]2[C@@H]3CCc4cc(O)ccc4[C@H]3CC[C@@]21C [17α-ethinylestradiol]
- dTagg [6]: 4.3 °C

Structure (SMILES): O=C(NN=Cc1coc2c(Cl)cc(Cl)cc2c1=O)c1cc(Br)c(O)c(Br)c1 [DBHD, 3,5-dibromo-4-hydroxy-benzoic acid (6,8-dichloro-4-oxo-4H-chromen-3-ylmethylene) hydrazide]
- dTagg ([3]; pH 7.5, without PAP): 11.4 °C

Structure (SMILES): NCCc1ccc(O)c(O)c1 [dopamine]
- dTagg [7]: 2.3 °C

Structure (SMILES): CNC[C@H](O)c1ccc(O)c(O)c1 [epinephrine]
- dTagg [8]: 16 °C

Structure (SMILES): CC(C)NCC(O)c1ccc(O)c(O)c1 (stereo not shown) [isoprenaline]
- dTagg [8]: 18 °C

Structure (SMILES): C[C@H](CCC(=O)O)[C@H]1CC[C@H]2[C@@H]3CC[C@@H]4C[C@H](O)CC[C@]4(C)[C@H]3CC[C@]12C [lithocholic acid]
- dTagg [9]: 4.4 °C

Structure (SMILES): Oc1c(Cl)c(Cl)c(Cl)c(Cl)c1Cl [pentachlorophenol]
- X-ray crystal structure, 1.8 Å [10]: we determined the structure of SULT1C2 bound to PAP and PCP
- dTagg ([3]; pH 7.5, with saturating PAP): 8.9 °C
- dTagg [1]: 10.2 °C
- % inhibition [11]: PCP and DBHD were strong inhibitors of SULT1B1

Structure (SMILES): O=c1c(O)c(-c2ccc(O)c(O)c2)oc2cc(O)cc(O)c12 [quercetin dihydrate]
- dTagg ([5]; pH 7.5, without PAP): 31 °C

Structure (SMILES): Oc1ccc(/C=C/c2cc(O)cc(O)c2)cc1 [resveratrol]
- dTagg ([5]; pH 7.5, without PAP): 6.6 °C

Structure (SMILES): C[C@H]1CCC[C@H](O)CCC/C=C/c2cc(O)cc(O)c2C(=O)O1 [α-zearalenol]
- dTagg ([2]; pH 7.5, with saturating PAP): 2.8 °C
